Measured values as given in patent US20090275557A1, “Novel Composition for Treatment of Diseases Related to Activated Lymphocytes” (Immune Control, Inc., priority 2008, published 2009).

Test system: bovine type 2 collagen immunized rats
Experiment: Collagen-induced arthritis assay, IP injection protocol, ankle diameter
Format: in vivo, rat
Conditions: IP injection 10 mg/kg once per day, study days 1-3; observed on study days 2-4
Protocol: Female Lewis rats (CR) weighing between 125-200 g were immunized with bovine type 2 collagen, 2 mg/ml in a 1:1 solution of 0.01 N acetic acid and Freund's incomplete adjuvant (“FIA”). A 0.1 ml portion of the collagen solution was injected id (intradermally) at three sites on the rat. Rats were immunized with the collagen solution on days 1 and 6 of the study. […] On day 9 (study day “0”), baseline ankle diameters were measured. On days 10-15 (study days 1-6), the rats were then treated, via oral gavage, with either 1, 5, or 25 mg/kg of one of ICI-1259 or ICI-1260, prepared as described below. Ankle diameter measurements were measured on each of days 10-16.
Compounds ICI-1259, ICI-1260, ICI-1505, and ICI-1506 were administered via IP injection to treat collagent-induced arthritis in a variation of the experiments described above. Under the protocol of the IP injection experiments, animal were immunized with Bovine Type 2 collagen as previously described. […] On day 9 (study day “0”), baseline ankle diameters were measured. On days 10-12 (study days 1-3), the rats were then treated once per day, via IP injection, with one of ICI-1259, ICI-1260, ICI-1505, or ICI-1506 at 10 mg/kg. Ankle diameter in the immunized rodents was measured on each of days 10-13 as well as on day 14. […] See FIG. 18 (ICI-1259, ICI-1260, and ICI-1505) and FIG. 19 (ICI-1506).
In a separate study, using the IP injection protocol described above, ICI-1259 and 1260 were each dosed at 2 mg/kg and 0.4 mg/kg.

SMILES | reduction in ankle swelling (ankle diameter)
CN(C)CCCN1CCC(CCCN2c3ccccc3Sc3ccc(C(F)(F)F)cc32)CC1 [ICI-1505, N,N-dimethyl-3-(4-(3-(2-(trifluoromethyl)-10H-phenothiazin-10-yl)propyl)piperidin-1-yl)propan-1-amine] | statistically significant results were observed
FC(F)(F)c1ccc2c(c1)N(CCCC1CCN(CCCN3CCCCC3)CC1)c1ccccc1S2 [ICI-1506, 10-(3-(1-(3-(piperidin-1-yl)propyl)piperidin-4-yl)propyl)-2-(trifluoromethyl)-10H-phenothiazine] | statistically significant results were observed
